US7547676B2, “Antagonist peptides to the C5A chemotactic function of vitamin D binding protein” (The Research Foundation of State University of New York, priority 2004, dated 2009)
Where a chain is given by its changes, count along the chain named. One block for each molecule: values may come before it.

Experiments:
[1] = system: differentiated HL-60 cells; assay: Chemotaxis assay, differentiated HL-60 cells responding to C5a, C5a plus DBP or ZAS; format: cell-based, Human; details: for block of the cochemotactic function of full-length natural DBP (C5a+DBP) / HL-60 cell chemotactic response to complement-activated serum (ZAS): cells pretreated with 1 μM peptide 30 min; for block of the cochemotactic function of full-length natural DBP (C5a+DBP): 100 pM C5a plus 50 nM DBP, 60 min; for HL-60 cell chemotactic response to complement-activated serum (ZAS): 1% ZAS; for enhancement of C5a-mediated chemotaxis by the peptides: peptides by themselves or mixed together
Description: Cells (6×10^6/ml) were resuspended in chemotaxis buffer and treated either with chemotaxis buffer (control), 1 μM of peptide 1 (130-152), or 1 μM of peptide 2 (150-172) for 30 min at room temperature. The chemotactic response of differentiated HL-60 cells to 100 pM C5a alone, C5a plus 50 nM full-length natural DBP or 1% zymosan-activated serum (ZAS) was measured for 60 minutes at 37° C. Numbers represent net cell movement in 60 min, mean±SEM of 3 experiments.
(§1) Cells and cell culture: Human promyelocytic cell line HL-60 was obtained from ATCC (Rockville, Md.) and cultured in RPMI 1640 medium supplemented with 10% FBS. Differentiation of HL-60 cells was initiated with 250 μM Bt2cAMP for 48 hours.
Chemotaxis assay. Chemotaxis was performed as described previously (see Kew, R. R. et al., J. Leukoc. Biol. 58, 55-58 (1995)). In brief, 35 μl of C5a (0.01 to 1 nM) in the chemotaxis buffer (HBSS with 1% BSA, 10 mM HEPES) were placed in duplicate in the lower chamber of a 48-well chamber (Neuroprobe, Md.). The lower compartments were covered with a 5 μm pore cellulose nitrate filter and then 50 μl of the cell suspension (2.5×10^5/well) was pipetted into the upper compartments. The chemotactic chamber was incubated for 1 hour at 37° C. in a humidified incubator with 5% CO2. Following incubation, the filter was fixed, stained and mounted on a microscope slide. Cell movement was measured as the distance in microns that the leading front of the cells had migrated into the filter (see Zigmond, S. et al., J. Exp. Med. 137, 387 (1973)).

[2] = target: T1, DBP immobilized on a Biacore sensor chip (Homo sapiens, UniProt P02774); assay: Biacore surface plasmon resonance: U937-C5aR cell binding to immobilized DBP; details: FIG. 9A; 10^6 cells/ml pretreated with 50 nM DBP or 0.5 μM DBP peptide
T1 construct: DBP was purified from human plasma; purchased Biodesign International; host or cells: human plasma
T1 sequence (P02774 17-474): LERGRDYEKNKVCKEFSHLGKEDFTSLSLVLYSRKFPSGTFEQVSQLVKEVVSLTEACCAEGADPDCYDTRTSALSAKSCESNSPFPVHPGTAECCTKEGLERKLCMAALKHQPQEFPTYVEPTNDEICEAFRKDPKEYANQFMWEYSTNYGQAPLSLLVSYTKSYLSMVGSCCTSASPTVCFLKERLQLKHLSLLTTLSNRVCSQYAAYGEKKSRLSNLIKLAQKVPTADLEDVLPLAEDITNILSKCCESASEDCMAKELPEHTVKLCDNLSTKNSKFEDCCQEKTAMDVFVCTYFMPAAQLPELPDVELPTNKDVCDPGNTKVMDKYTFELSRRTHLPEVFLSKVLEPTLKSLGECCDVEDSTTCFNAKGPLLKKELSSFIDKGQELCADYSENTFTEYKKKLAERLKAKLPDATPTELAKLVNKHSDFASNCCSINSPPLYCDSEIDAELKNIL
Description: FIG. 8A and FIG. 8B show immobilization of DBP on a Biacore surface plasmon resonance sensor chip CM5. Purified DBP in HBSS (5 μM) was coupled to the sensor chip. Coupling was detected using 5 μg/ml affinity-purified anti-DBP (FIG. 8A). Different concentrations of U937-C5aR cells in HBSS were injected into the flow cell and allowed to interact with the immobilized DBP (FIG. 8B). Data is expressed as response units of the molecular interaction on the sensor chip.
(§2) FIGS. 9A to 9C show the effect of pretreating U937-C5aR cells with purified DBP or DBP peptides on the binding to DBP immobilized on a Biacore sensor chip. FIG. 9A: 10^6 cells/ml in HBSS were not treated (control), pretreated with 50 nM DBP, 0.5 μM DBP peptide 1 (p1) or DBP peptide 2 (p2). FIG. 9B: DBP peptide 1 immobilized to the Biacore sensor chip. FIG. 9C: DBP peptide 2 immobilized to the Biacore sensor chip. Data is expressed as response units of the molecular interaction on the sensor chip.
U937-C5aR cells (10^6 cells/ml in HBSS) were pretreated with a 25 μg/ml control IgG, 50 nM purified DBP or 25 μg/ml affinity-purified anti-CD44 and then allowed to interact with DBP immobilized on a Biacore sensor chip. Data is expressed as response units of the molecular interaction on the sensor chip.
According to the present invention, the interaction of an immobilized ligand, e.g., immobilized DBP, binding to cells can be measure by any established technology available in the art, e.g., by surface plasmon resonance (SPR) or Biacore technology. For example, in the present invention, the binding of U937-C5aR cells to immobilized DBP were examined by Biacore technology, the result of which is used to further determine if the DBP peptides generated in the present invention can alter the interaction U937-C5aR cells and DBP. […] To investigate further the effect of DBP peptides on cell binding, peptide 1 (FIG. 9B) and peptide 2 (FIG. 9C) were immobilized to Biacore sensor chips. […] Finally, the present invention also identifies that CD44 on the cell surface binds DBP and can, in part, mediate the C5a chemotactic cofactor effect of DBP (McVoy and Kew, J. Immunol. 175:4754, 2005). Therefore, using Biacore technology the present invention addresses the effect of blocking CD44 on U937-C5aR binding to immobilized DBP (FIG. 10). In the present invention, U937-C5aR cells were pretreated with either an irrelevant goat IgG (negative control), purified soluble DBP (positive control) or affinity-purified goat anti-CD44. […] These Biacore experiments have provided a powerful quantitative tool to investigate the cell binding region on DBP and examine the effects on DBP peptides on this interaction.

U937-C5aR cells [3] = assay: Biacore: U937-C5aR cell binding to immobilized DBP peptides; parameters: species or system human; details: FIG. 9B, 9C; peptide immobilized to Biacore sensor chip
Description: as §2
According to the present invention, the interaction of an immobilized ligand, e.g., immobilized DBP, binding to cells can be measure by any established technology available in the art, e.g., by surface plasmon resonance (SPR) or Biacore technology. For example, in the present invention, the binding of U937-C5aR cells to immobilized DBP were examined by Biacore technology, the result of which is used to further determine if the DBP peptides generated in the present invention can alter the interaction U937-C5aR cells and DBP. […] To investigate further the effect of DBP peptides on cell binding, peptide 1 (FIG. 9B) and peptide 2 (FIG. 9C) were immobilized to Biacore sensor chips. […] These Biacore experiments have provided a powerful quantitative tool to investigate the cell binding region on DBP and examine the effects on DBP peptides on this interaction.

U937-C5aR cells [4] = assay: C5a-induced intracellular calcium mobilization in U937-C5aR cells; format: cell-based, human; details: FIG. 11B, 12; 0.5 μM DBP peptide, 50 nM DBP, 0.1 nM C5a
Description: FIG. 11A and FIG. 11B show the effect of DBP on C5a-induced intracellular calcium mobilization in U937-C5aR cells. U937-C5aR cells (10^7 cells/ml) were resuspended in HBSS-1% BSA containing 2 μM Fluo-3 AM and incubated at 37° C. for 40 minutes. Cells incubated without the dye were used as a control to measure autofluorescence (Fmin). Following the dye uptake, cells were washed twice then suspended at 5×10^6 cells/ml in HBSS containing 1% BSA. For the pretreatment experiments, cells were incubated for 30 min at 22° C. with 50 nM DBP or 0.5 μM DBP peptide 1 (p1). For each measurement, 400 μl of cell suspension was added to a cuvette and stimulated with the indicated concentration of C5a (FIG. 11A) or 0.1 nM C5a (FIG. 11B). Fluorescence was then measured immediately using a Perkin-Elmer LS-5 fluorometer at 505 nm excitation, 526 nm emission for Fluo-3 AM. Fmax was measured by treating labeled cells with 60 μM digitonin. Intracellular free calcium concentrations were calculated using the following formula: (Ca^2+)=Kd (F−Fmin)/(Fmax−F), where Kd=325 nM for Fluo-3 according to manufacturer (Molecular Probes). Data are presented as mean±SEM (n=4-6) of the increase in intracellular calcium concentration.
U937-C5aR cells (10^7 cells/ml) were resuspended in HBSS-1% BSA containing 2 μM Fluo-3 AM and incubated at 37° C. for 40 minutes. Cells incubated without the dye were used as a control to measure autofluorescence (Fmin). Following the dye uptake, cells were washed twice then suspended at 5×10^6 cells/ml in HBSS containing 1% BSA. Cells were incubated for 30 min at 22° C. with either 50 nM DBP or 0.5 μM DBP peptide. For each measurement, 400 μl of cell suspension was added to a cuvette and stimulated with 0.1 nM purified C5a. Fluorescence was then measured immediately using a Perkin-Elmer LS-5 fluorometer at 505 nm excitation, 526 nm emission for Fluo-3 AM. Fmax was measured by treating labeled cells with 60 μM digitonin. Intracellular free calcium concentrations were calculated using the following formula: (Ca2+)=Kd (F−Fmin)/(Fmax−F), where Kd=325 nM for Fluo-3 according to manufacturer (Molecular Probes)

[5] = system: differentiated HL-60 cells; assay: Ligand-induced calcium mobilization (Fluo-3 AM) in differentiated HL-60 cells; format: cell-based, Human; details: differentiated HL-60 cells incubated 30 min with 50 nM of indicated DBP, then C5a
Description: as §1
Ligand-induced calcium mobilization. Calcium mobilization studies were performed using the Fluo-3 AM probe as described previously (see Merritt, J. E. et al., Biochem. J. 269, 513-519 (1990)). Differentiated HL-60 cells (1×10^7 cells/ml) were resuspended in HBSS-1% BSA containing 2 μM Fluo-3 AM (Molecular Probes, Eugene, Oreg.) and incubated at 37° C. for 40 minutes. Cells incubated without the dye were used as a control to measure autofluorescence (Fmin). Following the dye uptake, cells were washed twice then suspended at 5×10^6 cells/ml in HBSS containing 1% BSA. Half of the cell suspension was treated with 50 nM DBP for 30 min at room temperature, the other half served as the untreated control. For each measurement, 400 μl of cell suspension (with or without DBP) was added to a cuvette and stimulated with various concentrations of purified C5a at room temperature (22-24° C.). Fluorescence was then measured immediately using a Perkin-Elmer LS-5 fluorometer at 505 nm excitation, 526 nm emission for Fluo-3 AM. Fmax was measured by treating labeled cells with 60 μM digitonin. Intracellular free calcium concentrations were calculated using the following formula: (Ca^2+)=Kd (F−Fmin)/(Fmax−F), where Kd=325 nM for Fluo-3 according to manufacturer (Molecular Probes).

G-actin = target: T2, G-actin (Oryctolagus cuniculus, UniProt P68135); assay: G-actin binding detected by non-denaturing PAGE; details: non-denaturing PAGE (data not shown)
T2 construct: G-actin was purified from rabbit skeletal muscle; from tissue; host or cells: rabbit skeletal muscle
Description: Functional characterization of reDBP. The capacity of reDBP to bind 25(OH)-vitamin D3 was measured to determine if the expressed proteins could functionally bind a physiological ligand. […] The ability of reDBPs to enhance C5a-mediated chemotaxis and Ca^2+ flux in differentiated HL-60 cells was determined next.

Molecule: EAFRKDPKEYANQFMWEYSTNYG [peptide 1, DBP residues 130-152]
block of the cochemotactic function of full-length natural DBP (C5a+DBP) ([1]; listed as DBP peptide 1): completely blocked the chemotactic enhancing effect of DBP
block of the cochemotactic function of full-length natural DBP (C5a+DBP) ([1]; listed as SEQ ID NO: 3): completely block
HL-60 cell chemotactic response to complement-activated serum (ZAS) ([1]; listed as DBP peptide 1): completely blocked
HL-60 cell chemotactic response to complement-activated serum (ZAS) ([1]; listed as SEQ ID NO: 3): eliminate
enhancement of C5a-mediated chemotaxis by the peptides [1]: could not enhance C5a-mediated chemotaxis
inhibition of U937-C5aR cell binding to the DBP chip [2]: no effect on cell binding
U937-C5aR cell binding to immobilized peptide (U937-C5aR cells [3]): do not bind
block of the DBP-enhanced C5a calcium signal (U937-C5aR cells [4]): completely blocks

inhibition of U937-C5aR cell binding to the DBP chip [2]: about 50%
Molecule: NYGQAPLSLLVSYTKSYLSMVGS [peptide 2, DBP residues 150-172]
block of the cochemotactic function of full-length natural DBP (C5a+DBP) [1]: not
enhancement of C5a-mediated chemotaxis by the peptides [1]: could not enhance C5a-mediated chemotaxis
U937-C5aR cell binding to immobilized peptide (U937-C5aR cells [3]): do bind

G-actin binding (G-actin): bound G-actin in a 1:1 molar complex
B1: full-length reDBP: E. coli expressed full-length human DBP (Gc-2 allele), residues 1-458 (protein)
chain: T1 sequence (P02774 17-474) with T420K, H429R
enhancement of C5a-mediated chemotaxis (net cell movement) ([1]; differentiated HL-60 cells, 100 pM C5a (FIG. 1: 25-200 pM) plus 50 nM of indicated DBP, 60 min at 37° C): significantly enhanced
enhancement of intracellular Ca2+ flux in response to C5a [5]: significantly enhanced
